Experiment [1] has as its system Neonothopanus nambi hispidin hydroxylase and luciferase. Kind of experiment: Bioluminescence reaction of biosynthetic hispidin. It is filed as biochemical. Particulars: hispidin purified from fermenter medium by HPLC. As to the method: The obtained E. coli strain was used for producing hispidin. At the first step the bacteria were incubated in five 50 ml plastic tubes in LB medium within 10 hours at 200 rpm fluctuation at 37° C. 250 ml of the obtained culture were added to 3.3 litres of fermentation medium into a fermenter Biostat B5 (Braun, Germany) so that initial culture optical density at 600 nm was about 0.35. Fermentation medium comprised 10 g/l of peptone, 5 g/l of caffeic acid, 5 g/l of yeast extract, 10 g/l of NaCl, 25 g/l of glucose, 15 g/l of (NH4)2SO4, 2 g/l of KH2PO4, 2 g/l of MgSO4·7 H2O, 14.7 mg/l of CaCl2), 0.1 mg/l of thiamine, 1.8 mg/l and 0.1% of the solution composed of: EDTA 8 mg/l, CoCl2·6 H2O 2.5 mg/l, MnCl2·4H2O 15 mg/l, CuCl2·2H2O 1.5 mg/l, H3BO3 3 mg/l, Na2MoO4·2H2O 2.5 mg/l, Zn(CH3COO)2·2H2O 13 mg/l, iron (III) citrate 100 mg/l, thiamine hydrochloride 4.5 mg/l. Fermentation was carried out at 37° C., with 3 l/min aeration and 200 rpm mixing. After 25 hours of cultivation arabinose was added to the culture up to final concentration of 0.1 mM. pH was automatically controlled by adding of NH4OH, […] pH to 7.0. […]

The subject of experiment [2] is HEK293NT cells. Nature of the experiment: Luminescence of HEK293NT cells expressing hispidin hydroxylase and luciferase on adding hispidin. Type of experiment: cell-based, human. The following applies: hispidin 800 μg/ml, 24 hours after transfection.
Experiment [3] relates to Danio rerio larvae. Kind of experiment: Bioluminescence of transgenic Danio rerio larvae after hispidin injection. Type of experiment: in vivo. The following applies: hispidin solution intravenously injected. The text has this: Transgenic fish Danio redo, comprising gene of Neonothopanus nambi hispidin hydroxylase were created according to the technique described in [Hisano et al., Sci Rep., 2015, 5:8841]. The technique includes expression of guide RNA and Cas9 nuclease for making a breakpoint in the region homologous to the guide RNA sequence. For the purpose of development of transgenic animals there were ordered synthetic DNA fragments comprising guide RNA sequences from pX330 plasmid, Addgene #42230 and mRNA of Cas9 nuclease under control of bacteriophage polymerase T7 promoter. The obtained fragments were used for transcription in vitro by means of reagents from MAXIscript T7 kit (Life Technologies, USA), and synthesized RNA was purified by means of DNA isolation kit (Evrogen, Russia).
Coding sequence of Neonothopanus nambi hispidin hydroxylase floxed by 50-nucleotide sequences from krtt1c19e Danio rerio gene, described in [Hisano et al., Sci Rep., 2015, 5:8841], was obtained synthetically and cloned into pEGFP/C1 plasmid base comprising pUC origin and kanamycin resistance cassette.
Hispidin solution was intravenously injected into Danio rerio larvae for recording bioluminescent signal according to the technique described in [Cosentino et al., J Vis Exp. 2010; (42): 2079]. Bioluminescence was recorded by means of IVIS Spectrum In Vivo Imaging System (Perkin Elmer). […]

The test system of experiment [4] is recombinant hispidin hydroxylase from Neonothopanus nambi. Nature of the experiment: HPLC analysis of hydroxylation by recombinant hispidin hydroxylase. Particulars: 0.2 μM substrate, 1 mM NADPH, 30 minutes. Type of experiment: biochemical. As for the experimental part:
The isolated recombinant hispidin hydroxylase from Neonothopanus nambi, obtained according to Example 4, was added to reaction mixtures comprising 1 mM of NADPH and 0.2 μM of hispidin, (E)-4-hydroxy-6-styryl-2H-pyran-2-one or (E)-4-hydroxy-6-(4-hydroxystyryl)-2H-pyran-2-one in 100 μl of the buffer (0.2 M of Na-phosphate buffer, 0.5 M of Na2SO4, 0.1% dodecylmaltoside (DDM) pH 8.0). In 30 minutes, the reaction mixture was analyzed by HPLC using synthetic luciferins as standards.

Take `O=c1cc(O)cc(/C=C/c2ccc(O)c(O)c2)o1` [hispidin, (E)-6-(3,4-dihydroxystyryl)-4-hydroxy-2H-pyran-2-one]: the “activity in bioluminescence reaction” value in experiment [1] is given as “active in bioluminescence reaction”. In addition, the “luminescence intensity exceeding the signal from untransfected control cells” value in experiment [2] is given as “more than by two orders of magnitude”. The “bioluminescence intensity exceeding the signal from wild-type fish” value in experiment [3] is “minimum by two orders of magnitude”. Further, in experiment [4], the “HPLC detection of hydroxylated product” value is on record as “occurrence of peaks corresponding to 3d position hydroxylated derivatives”.

The values are drawn from patent US20240117385A1, “ENZYMES OF LUCIFERIN BIOSYNTHESIS AND USE THEREOF” (LIGHT BIO, INC., priority 2018, published 2024).
